Measured values reported in article PMC11173485, “Connecting GSK-3β Inhibitory Activity with IKK-β or ROCK-1 Inhibition to Target Tau Aggregation and Neuroinflammation in Alzheimer’s Disease—Discovery, In Vitro and In Cellulo Activity of Thiazole-Based Inhibitors” (Molecules, 2024).

Assays:
[1] = Cytotoxicity, PrestoBlue cell viability assay in HT-22 cells; format: cell-based, mouse; settings: mouse, HT-22 hippocampal neuronal cells, 24 h; for viability at 24 h, 1 µM: 1 µM (log C -6); for viability at 24 h, 1 µM / viability at 24 h, 10 µM / viability at 24 h, 50 µM / viability at 24 h, 100 µM / viability at 24 h, 0.1 µM: read-out: neurotoxicity in HT-22 cells, % of cell viability; for viability at 24 h, 10 µM: 10 µM (log C -5); for viability at 24 h, 50 µM: 50 µM (log C -4.3); for viability at 24 h, 100 µM: 100 µM (log C -4); for IC50 at 24 h: PrestoBlue, mean ± SEM, read-out: Cytotoxicity in HT-22 Cells (IC50 x¯ ± SEM µM)
Description: (§1) We assessed their cytotoxic effects at five concentrations (0.1, 1, 10, 50, and 100 µM) in HT-22 (mouse hippocampal neuronal cells) and BV-2 (mouse microglial cells) cell lines using a fluorometric assay with PrestoBlue™ cell viability reagent (Table 4, Table S2 in the SI).
(§2) Mouse microglial cells (BV-2) were a generous gift from Professor Bozena Kaminska-Kaczmarek of the Laboratory of Molecular Neurobiology, Neurobiology Center, Nencki Institute of Experimental Biology, Polish Academy of Sciences, Warsaw, Poland. Cells were cultured in Dulbecco’s modified Eagle’s Medium-high glucose (DMEM, Glutamx Thermo Fisher, Waltham, MA, USA) supplemented with 10% inactivated fetal bovine serum (Thermo Fisher), 100 IU/mL penicillin (Merck), and 100 µg/mL streptomycin (Merck). Cells were cultured in flasks (area 175 cm^2, Nunc) and incubated at 37 °C, 5% CO2. To evaluate the level of NO, IL-6, and TNF-α and the effectiveness of the compounds tested, BV-2 microglia cells were cultured in 96-well culture plates (5 × 10^4 cells per well, Falcon). For the measurement of cell viability and cell membrane damage, cells were placed in 96-well culture plates (2 × 10^4 cells per well, Falcon). Before the tests, cells were grown for 24 h in the incubator (37 °C, 5% CO2). Mouse Hippocampal Neuronal Cell Line (HT-22) was a generous gift from Dr Bartosz Pomierny of the Department of Biochemical Toxicology, Jagiellonian University Medical College, Krakow, Poland. Cells were cultured in Dulbecco’s modified Eagle’s Medium-high glucose (DMEM, Glutamx Thermo Fisher) supplemented with 10% inactivated fetal bovine serum (Thermo Fisher), 100 IU/mL penicillin (Merck), and 100 µg/mL streptomycin (Merck). Cells were cultured in flasks (area 175 cm^2, Nunc) and incubated at 37 °C, 5% CO2. For the measurement of cell viability and neuroprotective effects against okadaic acid, cells were placed in 96-well culture plates (2 × 10^4 cells per well, Falcon). Before the tests, cells were grown for 24 h in the incubator (37 °C, 5% CO2).
(§3) Cell viability was evaluated using the PrestoBlue reagent (Thermo Fisher), according to the manufacturer’s procedures. Following 24 h of incubation with the tested molecule, PrestoBlue reagent was added to a microplate well in an amount equal to one-tenth of the remaining medium volume. The resulting mixture was incubated for 15 min at 37 °C, and the fluorescence intensity (EX 530; EM 580 nm) was measured using the plate reader POLARstar Omega, (BMG Labtech, Ortenberg, Germany). The results (viability values) are provided as a percentage of live cells with respect to DMSO (control sample).
(§4) Cytotoxic effects of selected inhibitors in HT-22 mouse hippocampal neuronal cells and BV-2 mouse microglial cells
(§5) Table S2. Cytotoxic effects of selected inhibitors in HT-22 mouse hippocampal neuronal cells and BV-2 mouse microglial cells. neurotoxicity in HT-22 cellsa immunotoxicity in BV-2 cellsa […]
(§6) a % of cell viability at the given concentration of tested compound; mean value ± standard deviation (SD) of triplicates; b half maximal inhibitory concentration of the tested compound; mean value ± standard error of the mean (SEM) of triplicates; c data obtained in log C of 39 of -8.5; -7.5; -6.5; -5.5; -5, respectively; d data obtained in log C of 49 of -7.5; -6.5; -5.5; -4.5; -4. respectively; nt, not tested.

[2] = system: HT-22 (mouse hippocampal neuronal cells); assay: as above; format: cell-based; settings: for effect on cell viability in HT-22 cells (in words): 0.1, 1, 10, 50, and 100 µM
Description: as §1, §2, §3, §4, §5, §6

ROCK-1 = target: T1, ROCK-1 (Homo sapiens, UniProt Q13464); assay: ADP-Glo kinase assay, ROCK-1 inhibition; format: biochemical
T1 construct: purchased Promega
T1 sequence (Q13464 whole entry): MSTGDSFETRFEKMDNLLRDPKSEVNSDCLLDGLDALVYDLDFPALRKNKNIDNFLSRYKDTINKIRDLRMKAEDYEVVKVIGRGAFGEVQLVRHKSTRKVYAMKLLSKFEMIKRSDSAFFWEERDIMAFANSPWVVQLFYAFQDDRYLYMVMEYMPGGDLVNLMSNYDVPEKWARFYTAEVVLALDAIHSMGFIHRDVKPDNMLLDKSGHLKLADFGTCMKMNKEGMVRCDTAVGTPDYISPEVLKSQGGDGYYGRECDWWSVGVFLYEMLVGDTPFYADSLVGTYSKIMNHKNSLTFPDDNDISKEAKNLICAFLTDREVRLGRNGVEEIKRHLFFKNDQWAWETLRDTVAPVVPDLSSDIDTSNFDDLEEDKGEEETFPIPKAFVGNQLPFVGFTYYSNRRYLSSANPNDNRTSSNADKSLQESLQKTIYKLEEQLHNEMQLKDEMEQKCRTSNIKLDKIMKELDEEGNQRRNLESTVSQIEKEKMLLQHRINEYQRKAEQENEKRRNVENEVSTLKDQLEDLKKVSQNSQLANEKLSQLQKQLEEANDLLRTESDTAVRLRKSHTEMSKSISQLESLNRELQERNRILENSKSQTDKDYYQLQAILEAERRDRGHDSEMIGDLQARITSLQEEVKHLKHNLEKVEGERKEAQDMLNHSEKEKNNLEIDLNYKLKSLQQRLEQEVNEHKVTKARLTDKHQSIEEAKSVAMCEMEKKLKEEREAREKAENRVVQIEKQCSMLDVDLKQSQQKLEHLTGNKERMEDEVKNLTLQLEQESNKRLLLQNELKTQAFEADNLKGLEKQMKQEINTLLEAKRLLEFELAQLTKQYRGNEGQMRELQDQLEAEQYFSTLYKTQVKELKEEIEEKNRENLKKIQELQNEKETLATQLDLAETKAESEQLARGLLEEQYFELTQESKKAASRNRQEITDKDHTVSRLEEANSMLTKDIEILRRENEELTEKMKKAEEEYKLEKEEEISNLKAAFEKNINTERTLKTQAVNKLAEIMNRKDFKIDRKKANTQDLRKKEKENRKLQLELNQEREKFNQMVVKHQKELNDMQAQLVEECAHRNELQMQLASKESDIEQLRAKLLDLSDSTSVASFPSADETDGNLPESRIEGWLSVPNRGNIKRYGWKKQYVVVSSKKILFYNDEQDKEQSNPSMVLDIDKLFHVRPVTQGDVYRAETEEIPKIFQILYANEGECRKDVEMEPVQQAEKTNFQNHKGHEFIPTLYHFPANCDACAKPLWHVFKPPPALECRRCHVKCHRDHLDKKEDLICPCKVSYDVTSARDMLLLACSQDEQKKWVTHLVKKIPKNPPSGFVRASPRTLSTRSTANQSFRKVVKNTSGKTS
Text: We evaluated the inhibitory activity of the final compounds against GSK-3β, IKK-β, and ROCK-1 kinases using the commercially available ADP-Glo™ kinase assay. The method was based on the measurement of luminescence that correlates with kinase activity. […] The latter are inhibitors of the kinases of interest and were integral to the design of our studies.
Promega’s Kinase Enzyme Systems (Promega; Madison, WI, USA) were used to determine the activities of the tested compounds against the human recombinant kinases GSK-3β, IKK- β, and ROCK-1. The assays were performed according to the provided manufacturer’s instruction, based on the optimized conditions of the enzymatic reactions, using the low-volume, white polystyrene, 384-well plates. The ADP-Glo™ Assay (Promega; Madison, WI, USA) was used for bioluminescent detection of the kinase activity. Stock solutions of the tested compounds in DMSO (1mM) were diluted with the Kinase Assay Buffer before use (40 mM Tris, pH 7.5, enriched with 50 µM dithiothreitol; DTT), giving the final desired concentrations. The kinase enzymes, substrates, and ATP solutions were also diluted with the assay buffer prior to use. The GSK-3β, IKK-β, and ROCK-1 substrates were derived from human muscle glycogen synthase 1, human IkBA, and human 40S ribosomal protein S6, respectively. […] The DMSO solution (1% in well) was used in the blank samples instead of the tested inhibitors. After the incubation period, ATP (25 µM per well in the case of GSK-3β and IKK-β kinases; 5 µM per well in the case of ROCK-1 kinase) and an appropriate enzyme substrate (0.2 µg/µL in well) were added to start the enzymatic reaction. The reaction mixture was kept at room temperature for 1 h; then, the ADP-Glo™ reagent was added, to terminate the kinase reaction and deplete any remaining ATP. After 40 min, a second reagent (Kinase Detection Reagent) was applied to convert the obtained ADP to ATP and to generate light from the newly synthesized ATP using a luciferase/luciferin reaction. The mixture was incubated for another 30 min at room temperature before the luminescence was measured. The calculations of the percent of kinases’ inhibition by tested compounds were based on the equation 100 − (S/B) × 100; S and B are the enzyme activities with and without the tested sample, respectively. […]. IC50 results were obtained using nonlinear regression (GraphPad Prism 9; GraphPad Software, San Diego, CA, USA) by plotting the residual enzyme activities against the applied inhibitor concentration. Each compound was evaluated in two independent experiments, with every data point collected in duplicate.

[3] = Cytotoxicity, PrestoBlue cell viability assay in BV-2 cells; format: cell-based, mouse; settings: mouse, BV-2 microglial cells, 24 h; for viability at 24 h, 1 µM: 1 µM (log C -6); for viability at 24 h, 1 µM / viability at 24 h, 10 µM / viability at 24 h, 50 µM / viability at 24 h, 100 µM / viability at 24 h, 0.1 µM: read-out: immunotoxicity in BV-2 cells, % of cell viability; for viability at 24 h, 10 µM: 10 µM (log C -5); for viability at 24 h, 50 µM: 50 µM (log C -4.3); for viability at 24 h, 100 µM: 100 µM (log C -4); for IC50 at 24 h: PrestoBlue, mean ± SEM, read-out: Cytotoxicity in BV-2 Cells (IC50 x¯ ± SEM µM)
Description: as §1, §2, §3, §4, §5, §6

[4] = system: BV-2 (mouse microglial cells); assay: as above; format: cell-based; settings: for effect on cell viability in BV-2 cells (in words): 0.1, 1, 10, 50, and 100 µM
Description: as §1, §2, §3, §4, §5, §6

IC50 (ROCK-1; mean ± SEM, ATP 5 µM) [µM] | inhibition at 10 µM (ROCK-1; 10 µM, mean ± SD, read-out: % inh. at 10 µM ROCK-1) [%] | Structure (SMILES) | viability at 24 h, 1 µM [1] [%] | viability at 24 h, 10 µM [1] [%] | viability at 24 h, 50 µM [1] [%] | viability at 24 h, 100 µM [1] [%] | IC50 at 24 h [1] [µM] | viability at 24 h, 0.1 µM [1] [%] | effect on cell viability in HT-22 cells (in words) [2] | viability at 24 h, 1 µM [3] [%] | viability at 24 h, 10 µM [3] [%] | viability at 24 h, 50 µM [3] [%] | viability at 24 h, 100 µM [3] [%] | IC50 at 24 h [3] [µM] | viability at 24 h, 0.1 µM [3] [%] | effect on cell viability in BV-2 cells (in words) [4] | effect on viability of HT-22 cells at concentrations up to 10 µM (in words) [2] | effect on viability of BV-2 cells at concentrations up to 10 µM (in words) [4] | inhibition at 1 µM (ROCK-1; 1 μM (footnote), mean ± SD, read-out: % inh. ROCK-1, tested at inhibitor screening concentration of 1 μM) [%]
1.36 ± 0.079 |  | O=C1NC2(CCCC2)Nc2cc(-c3ccnc(NC(=O)C4CC4)c3)sc21 [Compound 60, N-(4-(4’-Oxo-3’,4’-dihydro-1’H-spiro[cyclopentane-1,2’-thieno [3,2-d]pyrimidin]-6’-yl)pyridin-2-yl)cyclopropanecarboxamide] | 105 | 62 | 36 | 31 | 9.7 ± 5.8 | 101 | decreased cells’ viability | 101 | 9 | 3 | 3 | 3 | 108 | decreased cells’ viability |  |  | 
 | 48 | CC1(C)NC(=O)c2sc(-c3ccnc(NC(=O)C4CCC4)c3)cc2N1 [Compound 41, N-(4-(2,2-Dimethyl-4-oxo-1,2,3,4-tetrahydrothieno [3,2-d]pyrimidin-6-yl)pyridin-2-yl)-cyclobutanecarboxamide] |  |  |  |  |  |  | decreased cells’ viability |  |  |  |  |  |  | decreased cells’ viability |  |  | 
 |  | NC(=O)Nc1cc(-c2cccc(NC(=O)C3CC3)c2)sc1C(N)=O [Compound 58, 5-(3-(Cyclopropanecarboxamido)phenyl)-3-ureidothiophene-2-carboxamide] | 92 | 89 | 54 | 45 | 67.1 ± 14.5 | 94 | decreased cells’ viability | 107 | 97 | 52 | 13 | 51.4 ± 0.8 | 106 | decreased cells’ viability | did not decrease the viability of the cells | did not decrease the viability of the cells | 
 |  | NC(=O)Nc1cc(-c2ccnc(NC(=O)C3CCC3)c2)sc1C(N)=O [Compound 50, 5-(2-(Cyclobutanecarboxamido)pyridin-4-yl)-3-ureidothiophene-2-carboxamide] |  |  |  |  |  |  | no significant decrease in cell viability | 107 | 114 | 96 | 50 | > 100 | 101 | no significant decrease in cell viability |  |  | < 10
 |  | COc1nc(-c2ccnc(NC(=O)C3CC3)c2)sc1C(N)=O [II, reference compound] | 104 | 87 | 77 | 64 | > 100 | 107 | decreased cells’ viability | 102 | 60 | 27 | 4 | 15.4 ± 0.6 | 97 | decreased cells’ viability |  |  | 
 |  | NC(=O)Nc1cc(-c2ccnc(NC(=O)C3CC3)c2)sc1C(N)=O [Compound 49, 5-(2-(Cyclopropanecarboxamido)pyridin-4-yl)-3-ureidothiophene-2-carboxamide] | 102 | 101 | 88 | 76 | > 100 | 95 | no significant decrease in cell viability |  |  |  | 74 | > 100 |  | no significant decrease in cell viability | did not decrease the viability of the cells | did not decrease the viability of the cells | 
